Experimental data as given in patent US6743937B2, “Efficient method of synthesizing combretastatin A-4 prodrugs” (OxiGene, Inc., priority 2000, dated 2004).

Legend:
[1] = Moisture sorption at 25° C.; type: physicochemical; settings: for Loss on drying at 1% RH / Wt. gain at 30-70% RH / Wt. gain at > 70% RH: moisture sorption at 25° C.
[2] = Solubility in organic solvents at 25° C.; type: physicochemical; settings: based on cis-CA4P free acid; for Solubility in Acetone: BQL = below quantitation limit of the HPLC method
[3] = Aqueous solubility at 25° C. as a function of pH; type: physicochemical; settings: for Aqueous solubility: 25° C., based on cis-CA4P free acid
[4] = Comparison of physical stability of Process A and Process B materials (DSC, TGA, powder-XRD, solubility); settings: based on the available data
[5] = cited from earlier work

## COc1ccc(/C=C\c2cc(OC)c(OC)c(OC)c2)cc1OP(=O)([O-])[O-].[Na+].[Na+] [Process B Product, disodium salt of combretastatin A-4 phosphate]
[1]
  Loss on drying at 1% RH: 6.6%
  Wt. gain at 30-70% RH: 3%
  Wt. gain at > 70% RH: upto 30%
[2]
  Solubility in Ethanol: Ethanol = 0.096 mg/mL
  Solubility in Methanol: Methanol = 1.77 mg/mL
  Solubility in Acetone: Acetone = BQL^$
[3]; pH 0.8 (adjusted with HCl)
  Aqueous solubility: 0.21 mg/mL
[3]; pH 0.97 (adjusted with HCl)
  Aqueous solubility: 0.25 mg/mL
[3]; pH 2.20 (adjusted with HCl)
  Aqueous solubility: 1.61 mg/mL
[3]; pH 3.26 (adjusted with HCl)
  Aqueous solubility: 5.35 mg/mL
[3]; pH 6.96 (adjusted with HCl)
  Aqueous solubility: 34.7 mg/mL
[3]; pH 7.28 (adjusted with HCl)
  Aqueous solubility: 81.2 mg/mL
[3]; pH 7.35 (adjusted with HCl)
  Aqueous solubility: 94.3 mg/mL
[3]; pH 8.40 (adjusted with HCl)
  Aqueous solubility: 115 mg/mL
[3]; pH 9.4 (in water)
  Aqueous solubility: 118 (in water) mg/mL
[3]; both aqueous and organic solvents at 25° C.
  Solubility compared between products: consistently lower solubility than the Process A product
[4]
  Physical stability compared between products: physically more stable material than Process A

## COc1ccc(/C=C\c2cc(OC)c(OC)c(OC)c2)cc1O [combretastatin A-4]
[5]
  Solubility in water: extremely poor solubility in water

## COc1ccc(/C=C\c2cc(OC)c(OC)c(OC)c2)cc1OP(=O)([O-])[O-].[Na+].[Na+] [Process A Product, combretastatin A-4 disodium phosphate]
[1]
  Hygroscopicity compared between products: greater degree of hygroscopicity than the Product B product
  Loss on drying at 1% RH: 5.7%
  Wt. gain at 30-70% RH: 7-8.6%
  Wt. gain at > 70% RH: 9-30%
[2]
  Solubility in Ethanol: Ethanol = 0.18 mg/mL
  Solubility in Methanol: Methanol = 22.4 mg/mL
  Solubility in Acetone: Acetone = 0.45 mg/mL
[3]; pH 0.6 (adjusted with HCl)
  Aqueous solubility: 2.27 mg/mL
[3]; pH 0.8 (adjusted with HCl)
  Aqueous solubility: 0.83 mg/mL
[3]; pH 1.2 (adjusted with HCl)
  Aqueous solubility: 0.35 mg/mL
[3]; pH 5.2 (adjusted with HCl)
  Aqueous solubility: 77.4 mg/mL
[3]; pH 5.6 (adjusted with HCl)
  Aqueous solubility: 76.8 mg/mL
[3]; pH 7.1 (adjusted with HCl)
  Aqueous solubility: 169 mg/mL
[3]; pH 7.2 (adjusted with HCl)
  Aqueous solubility: 204 mg/mL
[3]; pH 7.8 (adjusted with HCl)
  Aqueous solubility: 208 mg/mL
[3]; pH 9.4 (in water)
  Aqueous solubility: 213 (in water) mg/mL
